Counter-ions that a name gives are not always drawn.

The target of this assay is T1, c-Myc/Max/Ebox DNA (Homo sapiens, UniProt P01106).
T1 construct: his6 (cleaved yes)
T1 sequence (P01106 whole entry): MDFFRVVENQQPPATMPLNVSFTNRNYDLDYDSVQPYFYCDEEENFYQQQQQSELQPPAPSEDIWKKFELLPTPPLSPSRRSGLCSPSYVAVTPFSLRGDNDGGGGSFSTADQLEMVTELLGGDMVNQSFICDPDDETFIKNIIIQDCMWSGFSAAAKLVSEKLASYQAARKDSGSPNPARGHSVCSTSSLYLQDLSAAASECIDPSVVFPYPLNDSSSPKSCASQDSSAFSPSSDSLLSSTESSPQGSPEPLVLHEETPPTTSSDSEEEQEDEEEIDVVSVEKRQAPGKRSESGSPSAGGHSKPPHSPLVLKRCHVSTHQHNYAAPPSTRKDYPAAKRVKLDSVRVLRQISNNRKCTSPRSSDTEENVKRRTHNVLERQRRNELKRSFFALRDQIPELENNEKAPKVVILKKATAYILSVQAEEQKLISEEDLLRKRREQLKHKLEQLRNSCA
Briefly: c-Myc/Max/Ebox DNA AlphaScreen Assay. It counts as binding. To be noted: free c-Myc 20 nM, his6-Max 5 nM, biotinylated Ebox oligo 10 nM, 2 hour incubation. On the procedure:
Compounds of the invention were assayed for c-Myc/Max/EBox activity as described in the following protocol. Human his6-c-Myc and his6-Max were used with biotinylated DNA containing a single Ebox sequence (biotin[…]) purchased from MWG Operon. Free c-Myc was generated from his6-c-Myc through thrombin cleavage of the his6 tag. For 384-well plate assays, 10 μL of a 2× solution of free c-Myc (20 nM final), Ni^2+ coated Acceptor Beads (25 μg/ml final), and biotinylated Ebox oligo (10 nM final) were added to 384-well plates with a Biotek EL406 liquid handler. 50 nL of compounds from stock plates were added by pin transfer using a Janus Workstation (PerkinElmer), allowing the compounds to interact with c-Myc prior to c-Myc binding with Max. In the current assay, DMSO was not allowed to exceed 2% v/v of the assay. 10 μl of 2× master mix containing streptavidin-coated donor beads (25 μg/ml final) and his6-Max (5 nM) were added. AlphaScreen measurements were performed on an Envision plate reader (PerkinElmer) utilizing the manufacturer's protocol.
Both master mixes were made in room temperature assay buffer (50 mM HEPES, 150 mM NaCl, 0.2% w/v BSA, 0.02% w/v Tween20, 40 μg/ml glycogen, 500 μM DTT, pH 8.0, wherein both DTT and glycogen were added fresh). Alpha beads were added to respective master solutions. All subsequent steps were performed in low light conditions. Solution 1: 2× solution of components with final concentrations of c-Myc Ni-coated Acceptor Beads (25 μg/ml), and biotinylated Ebox oligo (10 nM). Solution 2: 2× solution of streptavidin-coated donor beads (25 μg/ml final) and his6-Max […]. Solution 1 was added to 384-well plate (AlphaPlate-384, PerkinElmer) with Biotek EL406 liquid handler and the plates were centrifuged very briefly. 50 nL of compounds from stock plates were added by pin transfer using a Janus Workstation. Solution 2 (10 μL) was added with the liquid handler. Plates were sealed with foil to block light exposure and prevent evaporation. Plates were very briefly centrifuged followed by 2 hour incubation. AlphaScreen measurements were performed on an Envision 2104 utilizing the manufacturer's protocol. Excitation was at 680 nm for donor bead release of singlet oxygen and emission was read with a bandpass filter from 520-620 nm. Glycogen: Roche Diagnostics #10901393001. Plate 1536: Perkin Elmer, 6004350. Plate 384: Perkin Elmer, 6005350. Nickel-His Alpha Beads: 6760619R. The data from this assay are summarized in Table 3 below (Myc/Max/DNA Activity).
In general terms: Bead proximity is the source of the signal in Alpha formats.
What is called IC50 is the concentration at which inhibition is half-maximal. As to `CC(=O)Nc1sc2c(c1-c1nc3cnccc3s1)CC(C)NC2C` (mixture of isomers) [Compound 109, N-(5,7-dimethyl-3-(thiazolo[4,5-c]pyridin-2-yl)-4,5,6,7-tetrahydrothieno[2,3-c]pyridin-2-yl)acetamide], the 50% inhibitory concentration (IC50) lay within 500 to 5000 nM.

As for `CC(=O)Nc1sc2c(c1-c1nc3cnccc3s1)CNC2` [Compound 102, N-(3-(thiazolo[4,5-c]pyridin-2-yl)-5,6-dihydro-4H-thieno[2,3-c]pyrrol-2-yl)acetamide], the IC50 was in the range of 500 to 5000 nM.

Compound `CC(=O)Nc1sc2c(c1-c1nc3cnccc3s1)C(C)CNC2` (stereo not shown) [Compound 104, N-(4-methyl-3-(thiazolo[4,5-c]pyridin-2-yl)-4,5,6,7-tetrahydrothieno[2,3-c]pyridin-2-yl)acetamide] showed a half-inhibitory concentration (IC50) of 500 to 5000 nM.

Regarding `CC(=O)Nc1sc2c(c1-c1nc3cnccc3s1)CCN(CCN1CCOCC1)C2` [Compound 112], the IC50 lay within 5000 to 25000 nM. `CC(=O)Nc1sc2c(c1-c1nc3cnccc3s1)CCN(C(C)C)C2` [Compound 115, N-(6-isopropyl-3-(thiazolo[4,5-c]pyridin-2-yl)-4,5,6,7-tetrahydrothieno[2,3-c]pyridin-2-yl)acetamide] returned an IC50 of 500 to 5000 nM. The same measure for `CCN1[C@@H](C)Cc2c(sc(NC(C)=O)c2-c2nc3cnccc3s2)[C@@H]1C` [Compound 120, N-((5S,7S)-6-ethyl-5,7-dimethyl-3-(thiazolo[4,5-c]pyridin-2-yl)-4,5,6,7-tetrahydrothieno[2,3-c]pyridin-2-yl)acetamide]: 500 to 5000 nM; for `CC(=O)Nc1sc2c(c1-c1nc3cnccc3s1)CCN(CCN)C2` [Compound 121, N-(6-(2-aminoethyl)-3-(thiazolo[4,5-c]pyridin-2-yl)-4,5,6,7-tetrahydrothieno[2,3-c]pyridin-2-yl)acetamide hydrochloride]: 500 to 5000 nM. The same measure for `O=C(CCN1CC2(CNC2)C1)Nc1sc2c(c1-c1nc3cnccc3s1)CCNC2` [Compound 123]: less than 500 nM. For `O=C(CCN1CCC[C@@]2(CCCN2)C1)Nc1sc2c(c1-c1nc3cnccc3s1)CCNC2` [Compound 124], the IC50 was less than 500 nM. The same measure for `O=C(CCN1CC2(CCOC2)C1)Nc1sc2c(c1-c1nc3cnccc3s1)CCNC2` [Compound 125]: less than 500 nM. The same measure for `O=C(CCN1CCC2(CCOC2)C1)Nc1sc2c(c1-c1nc3cnccc3s1)CCNC2` (stereo not shown) [Compound 126]: less than 500 nM. The same measure for `O=C(CCN1CCC2(CC2)C1)Nc1sc2c(c1-c1nc3cnccc3s1)CCNC2` [Compound 127]: less than 500 nM; for `O=C(CCN1CC2(C1)CS(=O)(=O)C2)Nc1sc2c(c1-c1nc3cnccc3s1)CCNC2` [Compound 128]: 500 to 5000 nM; for `O=C(CCN1C[C@@H]2CC(F)(F)C[C@@H]2C1)Nc1sc2c(c1-c1nc3cnccc3s1)CCNC2` [Compound 129]: less than 500 nM. Turning to `O=C(CCN1CC2CCC2C1)Nc1sc2c(c1-c1nc3cnccc3s1)CCNC2` (stereo not shown) [Compound 130], the IC50 is less than 500 nM. The same measure for `O=C(CCN1CC2COCC2C1)Nc1sc2c(c1-c1nc3cnccc3s1)CCNC2` (stereo not shown) [Compound 131]: less than 500 nM; for `CC1CC(NCCC(=O)Nc2sc3c(c2-c2nc4cnccc4s2)CCNC3)C1` (stereo not shown) [Compound 133]: less than 500 nM.

In turn, `O=C(CCNCC1CCC1)Nc1sc2c(c1-c1nc3cnccc3s1)CCNC2` [Compound 135] displayed an IC50 of less than 500 nM. The same measure for `Cc1cc(C)n(CCNCCC(=O)Nc2sc3c(c2-c2nc4cnccc4s2)CCNC3)n1` [Compound 136]: 500 to 5000 nM; for `C[C@H](NCCC(=O)Nc1sc2c(c1-c1nc3cnccc3s1)CCNC2)C1CC1` [Compound 137]: less than 500 nM; for `CC(C)C[C@H](CO)NCCC(=O)Nc1sc2c(c1-c1nc3cnccc3s1)CCNC2` [Compound 138]: less than 500 nM.

With `O=C(CCNC(CO)c1ccc(F)cc1)Nc1sc2c(c1-c1nc3cnccc3s1)CCNC2` (stereo not shown) [Compound 139], the IC50 lay within 500 to 5000 nM. The compound `Cc1coc(CNCCC(=O)Nc2sc3c(c2-c2nc4cnccc4s2)CCNC3)n1` [Compound 140] gave a half-maximal inhibitory concentration (IC50) of 500 to 5000 nM. `O=C(CCNCc1ccno1)Nc1sc2c(c1-c1nc3cnccc3s1)CCNC2` [Compound 141] returned an IC50 of less than 500 nM. The same measure for `O=C(CCN1CCC(c2ccc(Cl)cc2)CC1)Nc1sc2c(c1-c1nc3cnccc3s1)CCNC2` [Compound 143]: 500 to 5000 nM. `CC1CN(CCC(=O)Nc2sc3c(c2-c2nc4cnccc4s2)CCNC3)CC(=O)N1` (stereo not shown) [Compound 144] registered an IC50 of 500 to 5000 nM. The same measure for `CC1CC1NCCC(=O)Nc1sc2c(c1-c1nc3cnccc3s1)CCNC2` (stereo not shown) [Compound 145]: less than 500 nM; for `O=C(CCNC1CNCC1O)Nc1sc2c(c1-c1nc3cnccc3s1)CCNC2` (stereo not shown) [Compound 146]: less than 500 nM; for `O=C(CCNC1CCOC1)Nc1sc2c(c1-c1nc3cnccc3s1)CCNC2` (stereo not shown) [Compound 147]: less than 500 nM. The same measure for `O=C(CCN[C@H]1COC[C@@H]1O)Nc1sc2c(c1-c1nc3cnccc3s1)CCNC2` [Compound 148]: less than 500 nM. The same measure for `O=C(CCN1CCC(OC2CCC2)CC1)Nc1sc2c(c1-c1nc3cnccc3s1)CCNC2` [Compound 149]: less than 500 nM; for `CN(C)[C@H]1CCN(CCC(=O)Nc2sc3c(c2-c2nc4cnccc4s2)CCNC3)C1` [Compound 150]: less than 500 nM; for `COC1(C)CCN(CCC(=O)Nc2sc3c(c2-c2nc4cnccc4s2)CCNC3)CC1` [Compound 151]: less than 500 nM. Take `COCC1CCCCN1CCC(=O)Nc1sc2c(c1-c1nc3cnccc3s1)CCNC2` (stereo not shown) [Compound 152]: the IC50 is less than 500 nM. `O=C(CCN1C[C@H]2CN[C@H]2C1)Nc1sc2c(c1-c1nc3cnccc3s1)CCNC2` [Compound 154] displayed an IC50 of less than 500 nM. The same measure for `O=C(CCN1CC[C@@H]2NCC[C@@H]21)Nc1sc2c(c1-c1nc3cnccc3s1)CCNC2` [Compound 155]: less than 500 nM; for `Cc1cc(CC(C)NCCC(=O)Nc2sc3c(c2-c2nc4cnccc4s2)CCNC3)on1` (stereo not shown) [Compound 156]: less than 500 nM. The compound `CN(CCC(=O)Nc1sc2c(c1-c1nc3cnccc3s1)CCNC2)Cc1cnc(Cl)s1` [Compound 157] showed an IC50 of 500 to 5000 nM. Consider `O=C(CCNCCN1CCCCC1=O)Nc1sc2c(c1-c1nc3cnccc3s1)CCNC2` [Compound 158], for which the IC50 is less than 500 nM. The same measure for `Cc1nc(C)c(CNCCC(=O)Nc2sc3c(c2-c2nc4cnccc4s2)CCNC3)s1` [Compound 159]: 500 to 5000 nM; for `O=C(CCNCc1cscn1)Nc1sc2c(c1-c1nc3cnccc3s1)CCNC2` [Compound 160]: less than 500 nM; for `CN(C)C1CN(CCC(=O)Nc2sc3c(c2-c2nc4cnccc4s2)CCNC3)C1` [Compound 161]: less than 500 nM. With `CN1CCN(CCC(=O)Nc2sc3c(c2-c2nc4cnccc4s2)CCNC3)CC1=O` [Compound 162], the IC50 was in the range of 500 to 5000 nM. The same measure for `O=C(CCN1CC2CCC(C1)O2)Nc1sc2c(c1-c1nc3cnccc3s1)CCNC2` [Compound 163]: 500 to 5000 nM. The same measure for `CC1(C)CCCN1CCC(=O)Nc1sc2c(c1-c1nc3cnccc3s1)CCNC2` [Compound 164]: less than 500 nM; for `O=C(CCNC1CCNCC1)Nc1sc2c(c1-c1nc3cnccc3s1)CCNC2` [Compound 165]: less than 500 nM; for `O=C(CCNCc1ccn[nH]1)Nc1sc2c(c1-c1nc3cnccc3s1)CCNC2` [Compound 166]: less than 500 nM. The same measure for `O=C(CCNC1CC(O)C1)Nc1sc2c(c1-c1nc3cnccc3s1)CCNC2` (stereo not shown) [Compound 167]: less than 500 nM; for `COC(=O)CCCNCCC(=O)Nc1sc2c(c1-c1nc3cnccc3s1)CCNC2` [Compound 168]: less than 500 nM. With `COCC1CCCN1CCC(=O)Nc1sc2c(c1-c1nc3cnccc3s1)CCNC2` (stereo not shown) [Compound 169], the IC50 is less than 500 nM. The same measure for `O=C(CCN1CCCOCC1)Nc1sc2c(c1-c1nc3cnccc3s1)CCNC2` [Compound 170]: less than 500 nM; for `Cc1ccsc1CNCCC(=O)Nc1sc2c(c1-c1nc3cnccc3s1)CCNC2` [Compound 171]: less than 500 nM. The same measure for `O=C(CCN[C@@H]1C2CCC1NC2)Nc1sc2c(c1-c1nc3cnccc3s1)CCNC2` (stereo partly shown) [Compound 173]: less than 500 nM; for `O=C(CCNCC12CC(CN1)C2)Nc1sc2c(c1-c1nc3cnccc3s1)CCNC2` [Compound 174]: less than 500 nM; for `O=C(CCNCC1CCCC1)Nc1sc2c(c1-c1nc3cnccc3s1)CCNC2` [Compound 175]: less than 500 nM.

Values taken from patent US11753418B2, “Compounds for the modulation of Myc activity” (Syros Pharmaceuticals, Inc., priority 2015, dated 2023).
